In patent publication US20140235617A1, “Combinations of Hepatitis C Virus Inhibitors” (BRISTOL-MYERS SQUIBB COMPANY, priority 2010, published 2014):
Values joined by “and” are separate entries in the source; they are usually repeats but may differ in a detail not shown here. Identical values can stand only once. Like-named read-outs stand apart in the source and are kept apart here.

Tested on: genotype Ib HCV replicon
Test: HCV replicon luciferase assay, monotherapy and triple combination studies
Format: cell-based
Conditions: monotherapy, 3 days, Expt 1-3
From the text: The HCV replicons used in these studies were generated at Bristol-Myers Squibb using the procedure described in WO2004014852. […] The functional replicon was then assembled in plasmid pGem9zf(+) (Promega, Madison, Wis.) using standard molecular biology techniques. To create a replicon encoding a luciferase reporter, the gene encoding humanized Renilla Luciferase protein was introduced upstream of the neomycin phosphotransferase gene.
HCV replicon cell lines were isolated from colonies as described by Lohman, et. al (Lohmann, V., F. Korner, J.-O. Koch, U. Herian, L. Theilmann, and R. Bartenschlager 1999, Science 285:110-113) and used for all experiments. Briefly, replicon clones were linearized with ScaI and RNA transcripts synthesized in vitro using the T7 MegaScript transcription kit (Ambion, Austin, Tex.) according to manufacturer's directions. […] After 24 h, selective media containing 0.5 mg/mL Geneticin (G418, Gibco-BRL, Rockville, Md.) was added and media was changed every 3 to 5 days. After approximately 4 weeks, cells were expanded for further analysis. Cells were maintained at 37° C. in DMEM (Gibco-BRL, Rockville, Md.) with 10% heat inactivated calf serum (Sigma), penicillin/streptomycin, and 0.5 mg/ml G418.
To determine compound efficacy, HCV replicon cells were plated at a density of 10^4 per well in 96-well plates in DMEM media containing 10% FBS. Following incubation overnight, compounds serially diluted in DMSO, or DMSO alone, were added to individual wells to a final DMSO concentration of 0.5%. Cell plates were then incubated at 37° C. for 3 days prior to assaying for cytotoxicity and HCV inhibition.
Plates were then washed two times with PBS and renilla luciferase activity assayed using a Dual-Glo Luciferase Assay System (Promega Corporation, Madison, Wis.) according to the manufacturer's directions. Plates were read on a TopCount NXT Microplate Scintillation and Luminescence Counter (Packard Instrument Company). The 50% effective concentration (EC50) was calculated by using Excel Fit (Version 2.0, Build 30).
Stock solutions, 200 times the desired final assay concentration, were prepared by 3-fold dilution in DMSO prior to addition to cells/media.

C=C[C@@H]1C[C@]1(NC(=O)[C@@H]1C[C@@H](Oc2ncc(OC)c3ccc(Cl)cc23)CN1C(=O)[C@@H](NC(=O)OC(C)(C)C)C(C)(C)C)C(=O)NS(=O)(=O)C1CC1 [NS3 PI]
EC50 (Hepatitis C virus, 72 h, read-out: NS3 PI EC50): 825 pM
EC50 (read-out: NS3 PI EC50): 1200 pM and 705 pM

COC(=O)N[C@H](C(=O)N1CCCC1c1ncc(-c2ccc(-c3ccc(-c4cnc(C5CCCN5C(=O)[C@@H](NC(=O)OC)C(C)C)[nH]4)cc3)cc2)[nH]1)C(C)C (stereo partly shown) [NS5A Inhibitor]
EC50 (Hepatitis C virus, 72 h, read-out: NS5A Inhibitor EC50): 2 pM
EC50 (read-out: NS5A Inhibitor EC50): 3 pM
